# Test results taken from ChEMBL document CHEMBL3813624, “Discovery of hydroxyl 1,2-diphenylethanamine analogs as potent cholesterol ester transfer protein inhibitors” (Bioorg Med Chem Lett, 2016).
# Active and inactive are the calls of the source. The rule behind the calls is not given here.
# Columns and labels:
# [1] = biological target: T1, Cholesteryl ester transfer protein (Homo sapiens, UniProt P11597); test: Inhibition of human recombinant CETP assessed as reduction in [3H]cholesteryl ester transfer from [3H]CE-HDL to biotinylated LDL by scintillation proximity assay
# T1 sequence (P11597 whole entry): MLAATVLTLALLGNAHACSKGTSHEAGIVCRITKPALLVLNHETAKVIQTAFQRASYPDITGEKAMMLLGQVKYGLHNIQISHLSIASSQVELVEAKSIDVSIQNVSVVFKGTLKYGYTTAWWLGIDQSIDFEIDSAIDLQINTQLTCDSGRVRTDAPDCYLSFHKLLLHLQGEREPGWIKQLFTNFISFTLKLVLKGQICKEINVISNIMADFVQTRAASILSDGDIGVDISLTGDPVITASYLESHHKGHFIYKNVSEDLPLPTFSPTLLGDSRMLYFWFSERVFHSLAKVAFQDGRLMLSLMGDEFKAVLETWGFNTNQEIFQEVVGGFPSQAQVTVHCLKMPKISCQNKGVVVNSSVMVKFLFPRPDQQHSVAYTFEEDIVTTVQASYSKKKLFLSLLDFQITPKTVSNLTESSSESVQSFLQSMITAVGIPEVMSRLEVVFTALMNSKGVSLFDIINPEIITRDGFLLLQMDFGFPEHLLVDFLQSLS
# [2] = biological target: T1, Cholesteryl ester transfer protein; test: Inhibition of CETP in human whole plasma assessed as reduction in [3H]cholesteryl ester transfer from [3H]CE-HDL to LDL/VLDL; format: cell-free
# [3] = Metabolic stability in human liver microsomes assessed as compound remaining at 3 uM after 10 mins by UV absorbance method; format: ADME; settings: read-out: Stability
# [4] = Metabolic stability in mouse liver microsomes assessed as compound remaining at 3 uM after 10 mins by UV absorbance method; format: ADME; settings: read-out: Stability
# [5] = Metabolic stability in rat liver microsomes assessed as compound remaining at 3 uM after 10 mins by UV absorbance method; format: ADME; settings: read-out: Stability
# [6] = system: Mus musculus; test: In vivo inhibition of human CETP-mediated [3H]cholesteryl ester transfer in human CETP expressed transgenic mouse coexpressing ApoB-100 at 3 to 10 mg/kg, po measured at 8 hrs post dose relative to control; format: functional
# [7] = biological target: T2, Voltage-gated inwardly rectifying potassium channel KCNH2 (Homo sapiens, UniProt Q12809); test: Inhibition of recombinant human ERG expressed in HEK293 cells assessed as inhibition of peak tail current by patch clamp assay; format: cell-based
# [8] = biological target: T2, Voltage-gated inwardly rectifying potassium channel KCNH2; test: Inhibition of recombinant human ERG flux expressed in HEK293 cells by patch clamp assay; format: cell-based
# [9] = Plasma concentration in dual transgenic mouse expressing human CETP/ApoB-100 at 1 mg/kg, po measured at 2 hrs post dose; format: ADME, organism-based
# [10] = Plasma concentration in dual transgenic mouse expressing human CETP/ApoB-100 at 3 mg/kg, po measured at 2 hrs post dose; format: ADME, organism-based
# [11] = Plasma concentration in dual transgenic mouse expressing human CETP/ApoB-100 at 10 mg/kg, po measured at 2 hrs post dose; format: ADME, organism-based
# [12] = Plasma concentration in dual transgenic mouse expressing human CETP/ApoB-100 at 1 mg/kg, po measured at 4 hrs post dose; format: ADME, organism-based
# [13] = Plasma concentration in dual transgenic mouse expressing human CETP/ApoB-100 at 3 mg/kg, po measured at 4 hrs post dose; format: ADME, organism-based
# [14] = Plasma concentration in dual transgenic mouse expressing human CETP/ApoB-100 at 10 mg/kg, po measured at 4 hrs post dose; format: ADME, organism-based
# [15] = Plasma concentration in dual transgenic mouse expressing human CETP/ApoB-100 at 1 mg/kg, po measured at 8 hrs post dose; format: ADME, organism-based
# [16] = Plasma concentration in dual transgenic mouse expressing human CETP/ApoB-100 at 3 mg/kg, po measured at 8 hrs post dose; format: ADME, organism-based
# [17] = Plasma concentration in dual transgenic mouse expressing human CETP/ApoB-100 at 10 mg/kg, po measured at 8 hrs post dose; format: ADME, organism-based
# [18] = AUC (0 to 8 hrs) in dual transgenic mouse plasma expressing human CETP/ApoB-100 at 1 mg/kg, po; format: ADME, organism-based; design: time < 8 hr, dose 1 mg/kg, route oral
# [19] = AUC (0 to 8 hrs) in dual transgenic mouse plasma expressing human CETP/ApoB-100 at 3 mg/kg, po; format: ADME, organism-based; design: dose 3 mg/kg, time < 8 hr, route oral
# [20] = AUC (0 to 8 hrs) in dual transgenic mouse plasma expressing human CETP/ApoB-100 at 10 mg/kg, po; format: ADME, organism-based; design: time < 8 hr, dose 10 mg/kg, route oral
# [21] = Ratio of plasma concentration in dual transgenic mouse expressing human CETP/ApoB-100 at 10 mg/kg, po measured at 2 hrs post dose to IC50 for CETP in human whole plasma; format: ADME, organism-based; settings: in vivo
# [22] = Ratio of plasma concentration in dual transgenic mouse expressing human CETP/ApoB-100 at 10 mg/kg, po measured at 4 hrs post dose to IC50 for CETP in human whole plasma; format: ADME, organism-based; settings: in vivo
# [23] = Aqueous solubility of compound; format: physicochemical; settings: buffer
# [24] = Plasma concentration in dual transgenic mouse expressing human CETP/ApoB-100 at 30 mg/kg, po measured at 2 hrs post dose; format: ADME, organism-based
# [25] = Plasma concentration in dual transgenic mouse expressing human CETP/ApoB-100 at 30 mg/kg, po measured at 4 hrs post dose; format: ADME, organism-based
# [26] = Plasma concentration in dual transgenic mouse expressing human CETP/ApoB-100 at 30 mg/kg, po measured at 8 hrs post dose; format: ADME, organism-based
# [27] = AUC (0 to 8 hrs) in dual transgenic mouse plasma expressing human CETP/ApoB-100 at 30 mg/kg, po; format: ADME, organism-based; design: dose 30 mg/kg, time < 8 hr, route oral
# [28] = system: Mus musculus; test: In vivo inhibition of human CETP-mediated [3H]cholesteryl ester transfer in human CETP expressed transgenic mouse coexpressing ApoB-100 at 30 mg/kg, po measured at 2 to 8 hrs post dose; format: functional, organism-based
# [29] = Ratio of plasma concentration in dual transgenic mouse expressing human CETP/ApoB-100 at 30 mg/kg, po measured at 2 hrs post dose to IC50 for CETP in human whole plasma; format: ADME, organism-based; settings: in vivo
# [30] = Ratio of plasma concentration in dual transgenic mouse expressing human CETP/ApoB-100 at 30 mg/kg, po measured at 4 hrs post dose to IC50 for CETP in human whole plasma; format: ADME, organism-based; settings: in vivo
# [31] = biological target: T3, hERG (KCNH2) (Homo sapiens, UniProt Q12809); test: Inhibition of recombinant human ERG expressed in HEK293 cells assessed as inhibition of peak tail current at 1 uM by patch clamp assay relative to control; format: cell-based; settings: HEK293 cells expressing recombinant human ERG
# [32] = biological target: T3, hERG (KCNH2); test: Inhibition of recombinant human ERG expressed in HEK293 cells assessed as inhibition of peak tail current at 3 uM by patch clamp assay relative to control; format: cell-based; settings: HEK293 cells expressing recombinant human ERG
# [33] = system: Oryctolagus cuniculus; test: Cardiotoxicity in rabbit assessed as QT prolongation up to 10 mg/kg by electrophysiology method; format: toxicity, organism-based; settings: in vivo
# [34] = system: Oryctolagus cuniculus; test: Cardiotoxicity in rabbit assessed as changes in QT interval up to 10 mg/kg by electrophysiology method; format: toxicity, organism-based; settings: in vivo
# [35] = system: Oryctolagus cuniculus; test: Cardiotoxicity in rabbit assessed as changes in QTcf interval up to 10 mg/kg by electrophysiology method; format: toxicity, organism-based; settings: in vivo
# [36] = system: Oryctolagus cuniculus; test: Cardiotoxicity in rabbit assessed as changes in QTcv interval up to 10 mg/kg by electrophysiology method; format: toxicity, organism-based; settings: in vivo
# [37] = system: Oryctolagus cuniculus; test: Cardiotoxicity in rabbit assessed as QT prolongation at 30 mg/kg by electrophysiology method; format: toxicity, organism-based; settings: in vivo
# [38] = system: Oryctolagus cuniculus; test: Cardiotoxicity in rabbit assessed as QRS prolongation at 30 mg/kg by electrophysiology method; format: toxicity, organism-based; settings: in vivo
# T2 sequence (Q12809 whole entry): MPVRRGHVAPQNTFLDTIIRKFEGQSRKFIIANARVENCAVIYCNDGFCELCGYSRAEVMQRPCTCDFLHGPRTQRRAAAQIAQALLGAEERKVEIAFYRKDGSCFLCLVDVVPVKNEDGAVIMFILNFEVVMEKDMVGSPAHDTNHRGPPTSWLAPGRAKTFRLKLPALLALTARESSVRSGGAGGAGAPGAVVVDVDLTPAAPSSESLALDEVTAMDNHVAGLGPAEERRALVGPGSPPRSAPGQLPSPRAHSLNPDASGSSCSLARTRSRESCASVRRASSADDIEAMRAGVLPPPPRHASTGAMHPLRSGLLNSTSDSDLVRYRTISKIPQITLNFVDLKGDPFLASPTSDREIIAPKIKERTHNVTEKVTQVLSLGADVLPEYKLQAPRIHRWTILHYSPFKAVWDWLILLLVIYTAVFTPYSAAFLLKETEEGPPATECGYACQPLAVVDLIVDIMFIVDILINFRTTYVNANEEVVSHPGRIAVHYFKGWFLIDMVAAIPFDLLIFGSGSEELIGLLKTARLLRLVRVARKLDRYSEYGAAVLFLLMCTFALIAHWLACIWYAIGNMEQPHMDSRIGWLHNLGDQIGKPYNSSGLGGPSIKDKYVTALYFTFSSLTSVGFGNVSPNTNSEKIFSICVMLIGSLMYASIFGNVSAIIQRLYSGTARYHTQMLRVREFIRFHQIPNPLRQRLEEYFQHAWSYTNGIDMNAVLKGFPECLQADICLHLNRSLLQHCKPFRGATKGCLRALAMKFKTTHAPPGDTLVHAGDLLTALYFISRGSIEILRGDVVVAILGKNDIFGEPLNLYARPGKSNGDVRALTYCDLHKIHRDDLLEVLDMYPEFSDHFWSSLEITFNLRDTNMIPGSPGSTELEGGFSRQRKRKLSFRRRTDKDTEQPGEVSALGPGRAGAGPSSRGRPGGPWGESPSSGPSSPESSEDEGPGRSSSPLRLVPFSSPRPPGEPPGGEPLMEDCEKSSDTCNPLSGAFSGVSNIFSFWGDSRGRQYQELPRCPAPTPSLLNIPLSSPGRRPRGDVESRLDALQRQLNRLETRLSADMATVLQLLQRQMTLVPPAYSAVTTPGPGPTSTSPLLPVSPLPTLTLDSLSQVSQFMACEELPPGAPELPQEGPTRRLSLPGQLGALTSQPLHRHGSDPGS
# T3 sequence (Q12809 whole entry): as above
Structure (SMILES),IC50 [1] [µM],IC50 [2] [µM],"remaining at 10 min, 3 µM [3] [%]","remaining at 10 min, 3 µM [4] [%]","remaining at 10 min, 3 µM [5] [%]",solubility [23] [µg/mL],also measured
CO[C@H](CN[C@@](Cc1ccccc1)(c1cc(F)cc(C(F)(F)F)c1)c1ccc(Cl)cn1)C(F)(F)F,0.253,48,–,–,–,< 1,–
OC[C@@H](O)CN[C@@](Cc1ccccc1)(c1cc(F)cc(C(F)(F)F)c1)c1ccc(Cl)cn1,3.1,98,–,–,–,37,–
O=C(CN[C@@](Cc1ccccc1)(c1cc(F)cc(C(F)(F)F)c1)c1ccc(Cl)cn1)CC(F)(F)F,0.641,30,–,–,–,< 1,–
CC(=O)O[C@H](CN[C@@](Cc1ccccc1)(c1cc(F)cc(C(F)(F)F)c1)c1ccc(Cl)cn1)C(F)(F)F,0.826,100,–,–,–,< 1,–
OC[C@H](O)CN[C@@](Cc1ccccc1)(c1cc(F)cc(C(F)(F)F)c1)c1ccc(Cl)cn1,8.53,–,–,–,–,44,–
C[C@H](O)CN[C@@](Cc1ccccc1)(c1cc(F)cc(C(F)(F)F)c1)c1ccc(Cl)cn1,0.334,20,–,–,–,< 1,–
C[C@@H](O)CN[C@@](Cc1ccccc1)(c1cc(F)cc(C(F)(F)F)c1)c1ccc(Cl)cn1,0.52,32,–,–,–,< 1,–

# Stronger by IC50 [1], values ahead:
IC50 [1] [µM],IC50 [2] [µM],"remaining at 10 min, 3 µM [3] [%]","remaining at 10 min, 3 µM [4] [%]","remaining at 10 min, 3 µM [5] [%]",solubility [23] [µg/mL],Structure (SMILES),also measured
0.052,7,93,100,97,< 1,O=C(N[C@@](Cc1ccccc1)(c1cc(F)cc(C(F)(F)F)c1)c1ccc(Cl)cn1)c1ccc(F)c(C(F)(F)F)c1,–
0.022,1.6,100,95,88,< 1,O[C@H](CN[C@@](Cc1ccccc1)(c1cc(F)cc(C(F)(F)F)c1)c1ccc(Cl)cn1)C(F)(F)F,–
0.014,0.9,100,88,84,–,O[C@H](CN[C@@](Cc1ccccc1)(c1cc(F)cc(OC(F)(F)C(F)F)c1)c1ccc(Cl)cn1)C(F)(F)F,inhibition [28]: Active; concentration at 2 h [24]: 5200 nM; concentration at 4 h [25]: 3000 nM; concentration at 8 h [26]: 1300 nM; AUC(0-t) at 8 h [27]: 26.9 µM·h; Ratio [29]: 5.7; Ratio [30]: 3.3; inhibition at 1 µM [31]: 43%; inhibition at 3 µM [32]: 87%; Activity [33]: Non-toxic; Activity [34]: Non-toxic; Activity [35]: Non-toxic; Activity [36]: Non-toxic; Activity [37]: Toxic; Activity [38]: Toxic
0.009,1.2,93,73,69,< 1,OC(CN[C@@](Cc1ccccc1)(c1cc(F)cc(C(F)(F)F)c1)c1ccc(Cl)cn1)CC(F)(F)F (stereo partly specified),–
0.0029,0.238,–,–,–,–,CC(C)Oc1cc([C@@](Cc2ccccc2)(NC[C@H](O)C(F)(F)F)c2cc(F)cc(OC(F)(F)C(F)F)c2)ccc1F,IC50 [8]: 12 µM
0.0025,0.169,–,–,–,–,CC(C)Oc1cc([C@@](Cc2ccccc2)(NC[C@@H](O)CC(F)(F)F)c2cc(F)cc(OC(F)(F)C(F)F)c2)ccc1F,IC50 [8]: 23 µM
0.0018,0.055,83,85,83,–,CC(C)Oc1cc([C@@](Cc2ccccc2)(NC[C@@H](O)C(F)(F)F)c2cc(F)cc(OC(F)(F)C(F)F)c2)ccc1F,IC50 [8]: 21 µM
0.0015,0.6,100,88,87,–,OC(CN[C@@](Cc1ccccc1)(c1cc(F)cc(OC(F)(F)C(F)F)c1)c1ccc(Cl)cn1)CC(F)(F)F (stereo partly specified),concentration at 2 h [24]: 5400 nM; concentration at 4 h [25]: 2600 nM; concentration at 8 h [26]: 490 nM; AUC(0-t) at 8 h [27]: 18.1 µM·h
0.0013,0.049,83,85,83,–,CC(C)Oc1cc([C@@](Cc2ccccc2)(NC[C@H](O)CC(F)(F)F)c2cc(F)cc(OC(F)(F)C(F)F)c2)ccc1F,inhibition (INH) [6]: 50%; IC50 [7]: 25.6 µM; IC50 [8]: 28 µM; concentration at 2 h [9]: 180 nM; concentration at 2 h [10]: 380 nM; concentration at 2 h [11]: 960 nM; concentration at 4 h [12]: 54 nM; concentration at 4 h [13]: 89 nM; concentration at 4 h [14]: 250 nM; concentration at 8 h [15]: 28 nM; concentration at 8 h [16]: 45 nM; concentration at 8 h [17]: 92 nM; AUC(0-t) at 8 h [18]: 0.543 µM·h; AUC(0-t) at 8 h [19]: 1.04 µM·h; AUC(0-t) at 8 h [20]: 2.66 µM·h; Ratio [21]: 19; Ratio [22]: 5
